These results are taken from US11179363B2, “Non-steroidal selective glucocorticoid receptor agonistic modulators (SEGRAMs) and uses thereof” (ASSOCIATION POUR LA RECHERCHE À L'IGBMC (ARI), priority 2017, dated 2021).

Structures are written as SMILES.

Series [1] deals with dorsal skin of Balb/C mice. The series can be described thus: Skin epidermis atrophy after 8-day topical treatment of dorsal skin. It is filed as in vivo. The source says: To investigate whether, similarly to Dex, a topical administration of CpdX could result in a skin atrophy, Balb/C mice were shaved on the dorsal skin. Ethanol (vehicle), Dex, CpdX or either one of its two enantiomers CpdX(eA) or CpdX(eB), as well as the deuterated form CpdX-D3 or either one of its two enantiomers CpdX-D3(eA) or CpdX-D3(eB), were topically applied onto the dorsal skin for 8 days.
Upon completion of the treatments, RNA transcripts were extracted from dorsal skin samples and the transcripts of Kindlin-1 and REDD1 genes were analyzed by q-RT-PCR. Histological and morphometric analyses of the dorsal skin were also performed.

For series [2], the system named is mouse tibia cortical bone and femur trabecular bone. The series can be described thus: Cortical and trabecular bone formation after three-month treatment (micro-CT, Wnt16 q-RT-PCR). It is filed as in vivo, B6 male mice. Particulars: s.c. 1 mg/kg daily, three months. As to the method: B6 male mice (8-week-old) were daily subjected for three months to either a subcutaneous injection of vehicle (NaCl 0.9%), Dex, CpdX, CpdX(eA), CpdX(eB), CpdX-D3, CpdX-D3(eA) or CpdX-D3(eB) (1 mg/kg body weight, diluted in NaCl 0.9%).
From each animal included in the experiments, one femur and the ipsilateral tibia were dissected and preserved in 70% ethanol for further bone microstructure analysis by micro-CT. The FX Quantum micro-CT scanner (Perkin Elmer) was used to perform measurements at the distal femur and midshaft tibia. All scans were performed with an isotropic voxel size of 10 μm, 160 μA tube current and 90 kV tube voltage.
Morphological 3D measurements were performed using the CTAn software (Bruker). Cortical bone parameters, which were measured in the tibia midshaft, included measures of the bone volume fraction as compared to the total volume, cortical thickness, total area, bone area and marrow area. […] Trabecular bone parameters were measured in the distal metaphysis of the femurs and included bone volume fraction, trabecular thickness, trabecular number and trabecular spacing. […]
The statistical significance as compared to vehicle treatment was calculated through one-way ANOVA test followed by Dunn's multiple comparison test, *p<0.05; **p<0.01; ***p<0.001; ****p<0,0001.

Series [3] in a line: Body weight and body composition after three-month treatment (pDEXA). Particulars: s.c. 1 mg/kg daily, 3 months. The format is in vivo, B6 male mice. As to the method: B6 male mice (8-week-old) were daily subjected for three months to a subcutaneous injection of either vehicle (NaCl 0.9%), Dex, CpdX or CpdX-D3 (1 mg/kg body weight, diluted in vehicle. A pDEXA machine was used to determine the lean mass and fat mass. The statistical significance was calculated through Krustal-Walis test followed by a Dunn's multiple comparison test, *p<0.05; **p<0.01; ***p<0.001.

In series [4] the test system is thymus, spleen, adrenal gland and kidney. The series can be described thus: Organ weights (thymus, spleen, adrenal gland, kidney) after three-month treatment. The format is in vivo, B6 male mice. Particulars: s.c. 1 mg/kg daily, three months. The method, then:
B6 male mice (8-week-old) were daily subjected for three months to a subcutaneous injection of either vehicle (NaCl 0.9%), Dex, CpdX, CpdX(eA), CpdX(eB), CpdX-D3, CpdX-D3(eA) or CpdX-D3(eB) (1 mg/kg body weight, diluted in vehicle). Following these treatments, four organs (thymus, spleen, adrenal gland and kidney) were harvested and weighted.

Series [5] has as its system adrenal glands. Description: Corticosterone synthesis and adrenal gland after three-month treatment. The format is in vivo, B6 male mice. Particulars: three months. The method, then: B6 male mice (8-week-old) were daily subjected for three months to either a subcutaneous injection of vehicle (NaCl 0.9%), Dex, CpdX, CpdX(eA), CpdX(eB), CpdX-D3, CpdX-D3(eA) or CpdX-D3(eB) (1 mg/kg body weight, diluted in vehicle).
Following this long-term treatment, blood was collected at 10 a.m. and 6 p.m. by retro-orbital puncture in lithium-heparin coated vials, and the plasmatic level of corticosterone was determined. Adrenal glands were harvested and weighted. RNA transcripts were extracted and transcripts of the Cyp11a, Cyp11b1, Cyp11b2 and HSD3β genes were analyzed by q-RT-PCR. Histological analyses of the adrenal glands were also carried out.

The nature of series [6]: Blood glucose and intraperitoneal glucose tolerance test (IPGTT) after three-month treatment. It is filed as in vivo, B6 male mice. Particulars: three months. As to the method:
B6 male mice (8-week-old) were daily subjected for three months to a subcutaneous injection of either vehicle (NaCl 0.9%), Dex, CpdX, CpdX(eA), CpdX(eB), CpdX-D3, CpdX-D3(eA) or CpdX-D3(eB) (1 mg/kg body weight, diluted in vehicle). Mice were over-night-fasted. Mouse blood glucose concentration was measured before (To) and during two hours (T120) after glucose i.p. injection ([…]).

Series [7] in a line: Blood insulin, intraperitoneal insulin tolerance test (IPITT) and liver western blot after three-month treatment. It is filed as in vivo, B6 male mice. Particulars: three months. The method, then:
B6 male mice (8-week-old) were subjected daily for three months to a subcutaneous injection of either vehicle (NaCl 0.9%), Dex, CpdX, CpdX(eA), CpdX(eB), CpdX-D3, CpdX-D3(eA) or CpdX-D3(eB) (1 mg/kg body weight, diluted in vehicle). After three months, the blood was collected at 10 a.m. by retro-orbital puncture in lithium-heparin coated vials, and the plasmatic level of insulin was determined.
For the intraperitoneal insulin tolerance test (IPITT), mice were fasted for 6 hours before test. The blood glucose concentration was measured both before (To) and during a one-hour period after insulin i.p. injection (0.75 U/kg body weight).
Following this three-month treatment, liver samples were harvested and lysed in the RIPA buffer (20 mM Tris pH 8, 150 mM NaCl, 10% glycerol, 1% NP-40 and 2 mM EDTA). Antibodies from Cell Signaling were used to assess by Western-Blotting the relative level of p-IRS1 (S318), IRS-1, p-AKT (S473) and AKT.

Series [8] has as its system liver. Description: Fatty liver after three-month treatment (red oil staining, q-RT-PCR, plasma cholesterol and bile acids). It is filed as in vivo, B6 male mice. Particulars: three months. The method, then:
B6 male mice (8-week-old) were daily subjected for three months to a subcutaneous injection of either vehicle (NaCl 0.9%), Dex, CpdX, CpdX(eA), CpdX(eB), CpdX-D3, CpdX-D3(eA) or CpdX-D3(eB) (1 mg/kg body weight, diluted in vehicle). Following this treatment, blood was collected at 10 a.m. by retro-orbital puncture in lithium-heparin coated vials. The plasmatic levels of total cholesterol and bile acids were determined.
Liver samples were harvested. […] RNA transcripts were extracted from liver samples and the transcripts of fatty acid synthase (FASN) and Stearoyl-CoA desaturase 1 (SCD1) genes were analyzed by q-RT-PCR.

Series [9] deals with T1, GR (Homo sapiens, UniProt P04150).
T1 sequence (P04150 1-777): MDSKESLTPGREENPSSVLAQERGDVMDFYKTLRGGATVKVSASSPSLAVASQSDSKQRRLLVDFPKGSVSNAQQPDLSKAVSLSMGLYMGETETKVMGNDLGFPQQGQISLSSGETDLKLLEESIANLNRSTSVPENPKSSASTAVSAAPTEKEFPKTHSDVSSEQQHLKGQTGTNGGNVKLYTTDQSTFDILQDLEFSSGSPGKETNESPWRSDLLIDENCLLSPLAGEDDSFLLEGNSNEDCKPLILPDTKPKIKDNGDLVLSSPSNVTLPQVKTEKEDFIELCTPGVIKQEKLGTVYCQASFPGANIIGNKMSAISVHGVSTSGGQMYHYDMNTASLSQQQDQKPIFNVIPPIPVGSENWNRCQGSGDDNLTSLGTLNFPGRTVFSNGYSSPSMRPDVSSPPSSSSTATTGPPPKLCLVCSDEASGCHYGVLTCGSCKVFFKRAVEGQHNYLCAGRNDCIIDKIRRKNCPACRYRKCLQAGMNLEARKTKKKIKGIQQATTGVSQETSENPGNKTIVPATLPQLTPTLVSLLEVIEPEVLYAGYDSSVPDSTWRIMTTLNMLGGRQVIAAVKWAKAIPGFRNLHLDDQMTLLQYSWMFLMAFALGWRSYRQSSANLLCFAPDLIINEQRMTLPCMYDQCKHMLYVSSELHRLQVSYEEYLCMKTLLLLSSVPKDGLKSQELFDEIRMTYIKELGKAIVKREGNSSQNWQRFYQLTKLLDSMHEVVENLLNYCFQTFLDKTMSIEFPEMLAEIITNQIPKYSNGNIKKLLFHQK
Particulars: cited from earlier work.

For series [10], the target named is T2, GR (Rattus norvegicus, UniProt P06536).
T2 sequence (P06536 1-795): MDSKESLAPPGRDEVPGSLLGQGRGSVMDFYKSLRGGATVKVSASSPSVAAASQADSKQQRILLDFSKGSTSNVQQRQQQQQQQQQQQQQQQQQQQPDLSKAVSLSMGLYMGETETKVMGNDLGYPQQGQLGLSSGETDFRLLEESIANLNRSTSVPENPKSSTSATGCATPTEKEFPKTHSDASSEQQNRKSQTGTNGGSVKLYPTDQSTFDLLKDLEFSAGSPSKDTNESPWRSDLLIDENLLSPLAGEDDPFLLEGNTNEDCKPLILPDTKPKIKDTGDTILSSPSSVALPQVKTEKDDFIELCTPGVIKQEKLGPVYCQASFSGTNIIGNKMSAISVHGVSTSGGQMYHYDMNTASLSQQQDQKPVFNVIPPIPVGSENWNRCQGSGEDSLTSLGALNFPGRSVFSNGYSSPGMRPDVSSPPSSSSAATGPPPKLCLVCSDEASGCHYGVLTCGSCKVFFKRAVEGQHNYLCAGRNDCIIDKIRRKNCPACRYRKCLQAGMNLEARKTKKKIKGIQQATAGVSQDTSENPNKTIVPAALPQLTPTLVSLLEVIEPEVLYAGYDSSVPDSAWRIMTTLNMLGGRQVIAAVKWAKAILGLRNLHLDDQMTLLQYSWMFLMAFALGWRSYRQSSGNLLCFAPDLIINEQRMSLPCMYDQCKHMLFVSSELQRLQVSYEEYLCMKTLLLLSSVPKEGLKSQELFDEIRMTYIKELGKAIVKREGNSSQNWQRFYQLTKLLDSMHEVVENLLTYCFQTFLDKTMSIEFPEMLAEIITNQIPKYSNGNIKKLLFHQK
Particulars: cited from earlier work.

Take `C[C@@H]1C[C@H]2[C@@H]3CCC4=CC(=O)C=C[C@]4(C)[C@@]3(F)[C@@H](O)C[C@]2(C)[C@@]1(O)C(=O)CO` [Dex, Dexamethasone, reference compound]: in series [1] (eight-day topical treatment), the “decrease of the epidermal thickness (morphometric analyses)” value stood at 65% and the “skin atrophy (histological analysis)” value is reported as “severely induces a skin atrophy”. In series [1] (topical 1 nmole/cm^2, 8 days), the “transcription of the Kindlin-1 gene (nGRE) in dorsal skin” value is “strongly decreased” and the “transcription of the REDD1 gene (+GRE) in dorsal skin” value is listed as “significantly increased”. In addition, the “decrease of the transcription of the WNT16 gene in tibia” value in series [2] is 50%. Moreover, the “bone volume as compared to the total volume, tibia cortical bone” value in series [2] (micro-CT) is “significantly decreased”. Also, the “body weight, change from baseline” value in series [3] is reported as “net loss”. In [3] (pDEXA), the “fat mass / fat percentage, change from baseline” value is reported as “disproportional increase” and the “lean mass / lean percentage, change from baseline” value is “decrease”. For the same compound, in series [4], the “decrease of the spleen weight” value is given as “more than 50%” and the “thymus apoptosis (thymus weight)” value is on record as “no thymus was found in sixteen out of nineteen mice”. Further, the “cortex layers, most notably the fasciculata zone, of the adrenal glands (histology)” value in series [5] (s.c. 1 mg/kg daily) is “drastically decreased”. Further, the “transcripts of Cyp11a, Cyp11b1 and HSD3β genes in adrenal glands (corticosterone synthesis pathway)” value in series [5] (s.c. 1 mg/kg daily, q-RT-PCR) is recorded as “inhibited”. The “glomerulosa zone of the adrenal cortex (histology)” value in series [5] is given as “drastically decreased”. In [5] (q-RT-PCR), the “transcript of the Cyp11b2 gene in adrenal glands (aldosterone synthesis pathway)” value is “inhibited”. Besides, in [5] (vs Vehicle), the “plasmatic corticosterone level at 6 p.m.” value is “much lower” and the “plasmatic corticosterone level at 10 a.m.” value is recorded as “much lower”. Besides, the “blood glucose level after over-night fasting” value in series [6] (s.c. 1 mg/kg daily) is “significantly higher”. Further, the “blood glucose level during two-hour IPGTT” value in series [6] (glucose i.p. injection) is “significant higher”. Besides, in series [7] (s.c. 1 mg/kg daily, 10 a.m.), the “blood insulin level (hyperinsulinemia)” value was “hyperinsulinemia”. Moreover, in series [7], the “phosphorylated insulin receptor substrate 1 (p-IRS1 S318) in liver extracts (western blot)” value is listed as “decrease” and the “phosphorylation of protein kinase B (p-AKT S473) in liver extracts (western blot)” value was “decreased”. Moreover, the “response to insulin in IPITT” value in [7] (insulin i.p. 0.75 U/kg) was “significant impaired response to insulin”. Besides, the “lipid deposition in the liver (5% red oil staining)” value in [8] (s.c. 1 mg/kg daily) is “marked lipid deposition”. Further, in series [8] (10 a.m.), the “blood cholesterol and bile acids' levels” value is recorded as “clear increase”. Also, the “transcripts of fatty acid synthase (FASN) and Stearoyl-CoA desaturase 1 (SCD1) in liver” value in [8] (q-RT-PCR) was “increase”.

As for `C[C@@H]1C[C@H]2[C@@H]3CCC4=CC(=O)C=C[C@]4(C)[C@@]3(F)[C@@H](O)C[C@]2(C)[C@H]1C(=O)CC#N` [RU24858], the “dissociated profile (transrepression vs transactivation) in vitro” value in [9] is given as “exhibit such an expected dissociated profile”. Moreover, the “dissociation upon administration in vivo” value in series [10] is listed as “failed to confirm this dissociation”.
